Like-named read-outs stand apart in the source and are kept apart here.
What was measured:
[1] = target: T1, α2C Human Adrenergic Receptor (Homo sapiens, UniProt P18825); test: Equilibrium competition binding, [3H] rauwolscine, membranes of transfected LM(tk-) cells
T1 sequence (P18825 1-462): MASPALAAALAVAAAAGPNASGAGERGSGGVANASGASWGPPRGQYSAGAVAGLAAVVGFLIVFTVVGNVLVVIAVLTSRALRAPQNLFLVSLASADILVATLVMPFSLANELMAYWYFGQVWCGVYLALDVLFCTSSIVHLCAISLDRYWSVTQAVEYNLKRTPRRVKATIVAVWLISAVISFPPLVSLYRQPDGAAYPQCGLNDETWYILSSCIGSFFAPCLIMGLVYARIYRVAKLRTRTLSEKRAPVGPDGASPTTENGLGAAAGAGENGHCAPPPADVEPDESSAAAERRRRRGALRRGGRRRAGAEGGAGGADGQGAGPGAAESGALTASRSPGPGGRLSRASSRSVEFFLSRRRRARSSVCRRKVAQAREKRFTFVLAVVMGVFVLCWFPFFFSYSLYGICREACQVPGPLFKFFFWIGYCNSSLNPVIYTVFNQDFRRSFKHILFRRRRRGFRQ

[2] = target: T2, α1A Human Adrenergic Receptor (Homo sapiens, UniProt P25100); test: Equilibrium competition binding, [3H] prazosin, membranes of transfected LM(tk-) cells
T2 construct: expressed in transfected cells; host or cells: LM(tk-) cells
T2 sequence (P25100 1-572): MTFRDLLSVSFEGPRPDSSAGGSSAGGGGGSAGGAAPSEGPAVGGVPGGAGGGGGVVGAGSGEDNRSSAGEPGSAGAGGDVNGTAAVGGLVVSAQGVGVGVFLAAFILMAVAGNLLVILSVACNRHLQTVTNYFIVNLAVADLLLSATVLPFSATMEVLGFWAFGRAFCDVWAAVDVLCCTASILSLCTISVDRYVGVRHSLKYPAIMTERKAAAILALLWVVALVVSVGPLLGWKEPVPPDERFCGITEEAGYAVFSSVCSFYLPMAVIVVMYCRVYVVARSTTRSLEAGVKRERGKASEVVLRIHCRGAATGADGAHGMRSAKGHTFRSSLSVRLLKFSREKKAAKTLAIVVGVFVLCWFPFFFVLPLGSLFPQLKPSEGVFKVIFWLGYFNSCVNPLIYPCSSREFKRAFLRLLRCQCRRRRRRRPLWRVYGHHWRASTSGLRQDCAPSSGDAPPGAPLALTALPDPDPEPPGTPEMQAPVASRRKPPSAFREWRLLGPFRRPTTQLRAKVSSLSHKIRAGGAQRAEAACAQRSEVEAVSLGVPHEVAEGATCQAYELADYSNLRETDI

[3] = target: T3, α2B Human Adrenergic Receptor (Homo sapiens, UniProt P18089); assay type: cell-based
T3 construct: expressed in transfected cells; host or cells: Y-1 cells
T3 sequence (P18089 1-450): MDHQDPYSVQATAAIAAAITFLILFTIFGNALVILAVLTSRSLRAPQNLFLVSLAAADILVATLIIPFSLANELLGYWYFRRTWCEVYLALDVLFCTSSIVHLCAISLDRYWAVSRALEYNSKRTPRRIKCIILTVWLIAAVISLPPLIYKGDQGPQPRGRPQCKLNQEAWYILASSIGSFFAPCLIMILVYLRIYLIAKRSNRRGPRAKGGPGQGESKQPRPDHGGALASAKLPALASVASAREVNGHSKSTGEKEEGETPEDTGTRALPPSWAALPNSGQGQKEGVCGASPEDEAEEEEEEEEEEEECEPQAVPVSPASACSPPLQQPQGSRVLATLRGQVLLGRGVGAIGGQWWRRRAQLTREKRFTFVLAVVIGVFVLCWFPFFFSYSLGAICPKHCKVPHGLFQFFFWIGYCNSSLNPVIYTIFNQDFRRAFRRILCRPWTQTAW

[4] = target: T3, α2B Human Adrenergic Receptor; test: Equilibrium competition binding, [3H] rauwolscine, membranes of transfected Y-1 cells
[5] = inhibition of forskolin-stimulated cAMP, NA: Not Active, read-out: pEC50 Alpha-2 B (converted)
[6] = cloned human receptor, [3H] rauwolscine, read-out: pKi Alpha-2 B (converted)
[7] = cloned human receptor, [3H] prazosin, read-out: pKi Alpha-1 A (converted)
[8] = cloned human receptor, [3H] rauwolscine

| Ki [2, 7] [nM] | SMILES | Ki [1] [nM] | Ki [2] [nM] | EC50 [3] [nM] | I.A Alpha-2 B [3] | Ki [4] [nM] | I.A Alpha-2 B ([3]; functional cAMP assay) | EC50 [3, 5] [nM] | Ki [4, 6] [nM] | pKi Alpha-2 C [1, 8] | pKi Alpha-1 A ([2]; cloned human receptor, [3H] prazosin) | pEC50 Alpha-2 B ([3]; inhibition of forskolin-stimulated cAMP, NA: Not Active) | pKi Alpha-2 B [4, 8] |
| --- | --- | --- | --- | --- | --- | --- | --- | --- | --- | --- | --- | --- | --- |
|  | c1nc2ccc(NC3=NCCN3)cc2[nH]1 [Example 1, 5-(2-Imidazolin-2-ylamino)Benzimidazole] | 70.8 | 6760 | 44.7 | 1.00 | 74.1 |  |  |  |  |  |  |  |
|  | Brc1c(NC2=NCCN2)ccc2nc[nH]c12 [Example 2, 4-Bromo-5-(2-imidazolin-2-ylamino)Benzimidazole] | 97.7 | 955 |  |  |  | 1.00 | 18.6 | 20.4 |  |  |  |  |
|  | Clc1c(NC2=NCCN2)ccc2nc[nH]c12 [Example 3, 4-Chloro-5-(2-imidazolin-2-ylamino)Benzimidazole] | 100 | 537 |  |  |  | 1.00 | 12.6 | 15.5 |  |  |  |  |
| 603 | Cc1c(N=C2NCCN2)ccc2[nH]cnc12 [Example 4, 4-Methyl-5-(2-imidazolin-2-ylamino)Benzimidazole] | 25.7 |  |  |  |  |  | 9.77 | 9.12 |  |  |  |  |
|  | Ic1c(NC2=NCCN2)ccc2nc[nH]c12 [Example 5, 4-Iodo-5-(2-imidazolin-2-ylamino)Benzimidazole] | 24 | 537 | 46.8 | 1.00 | 30.9 |  |  |  |  |  |  |  |
|  | CCCc1c(NC2=NCCN2)ccc2nc[nH]c12 [Example 7, 4-n-Propyl-5-(2-imidazolin-2-ylamino)Benzimidazole] | 41.7 | 269 | 200 | 1.00 |  |  |  |  |  |  |  |  |
|  | CCCCc1c(NC2=NCCN2)ccc2nc[nH]c12 [Example 8, 4-n-Butyl-5-(2-imidazolin-2-ylamino)Benzimidazole] |  | 676 |  |  |  | 0.80 | 234 | 50.1 |  |  |  |  |
|  | Cn1cnc2cc(NC3=NCCN3)ccc21 [Example 9, 1-Methyl-5-(2-imidazolin-2-ylamino)Benzimidazole] |  | 2750 |  |  |  | 1.00 | 58.9 | 46.8 |  |  |  |  |
|  | Cn1cnc2c(Br)c(NC3=NCCN3)ccc21 [Example 10, 1-Methyl-4-bromo-5-(2-imidazolin-2-ylamino)Benzimidazole] | 15.5 | 617 | 102 | 1.00 | 28.2 |  |  |  |  |  |  |  |
|  | Cn1cnc2ccc(NC3=NCCN3)c(Br)c21 [Example 12, 3-Methyl-4-bromo-5-(imidazolin-2-ylamino)Benzimidazole] |  |  |  |  |  | 1.00 |  |  | 7.59 | 7.02 | 7.51 | 7.84 |
|  | COc1ccc(Cn2cnc3c(Br)c(NC4=NCCN4)ccc32)cc1 [Example 36, 1-(4-Methoxybenzyl)-4-bromo-5-(2-imidazolin-2-ylamino)Benzimidazole] | 166 | 813 |  |  |  | 0.60 | 282 | 107 |  |  |  |  |
|  | OCCn1cnc2c(Br)c(NC3=NCCN3)ccc21 [Example 38, 1-(2-Hydroxyethyl)-4-bromo-5-(2-imidazolin-2-ylamino)Benzimidazole] | 1290 | 7240 |  |  |  | 0.80 | 158 | 525 |  |  |  |  |
|  | Cc1nc2ccc(NC3=NCCN3)c(Br)c2[nH]1 [Example 42, 2-Methyl-4-bromo-5-(2-imidazolin-2-ylamino)Benzimidazole] | 214 | 1620 | 97.7 | 0.60 | 23.4 |  |  |  |  |  |  |  |
|  | CCc1nc2ccc(NC3=NCCN3)c(Br)c2[nH]1 [Example 43, 2-Ethyl-4-bromo-5-(2-imidazolin-2-ylamino)Benzimidazole] |  | 1740 | 162 | 0.80 | 33.9 |  |  |  |  |  |  |  |
|  | CC(C)c1nc2ccc(NC3=NCCN3)c(Br)c2[nH]1 [Example 44, 2-Isopropyl-4-bromo-5-(2-imidazolin-2-ylamino)Benzimidazole] | 214 | 2040 | 91.2 | 0.80 | 46.8 |  |  |  |  |  |  |  |
|  | CC(C)(C)c1nc2ccc(NC3=NCCN3)c(Br)c2[nH]1 [Example 45, 2-tert-Butyl-4-bromo-5-(2-imidazolin-2-ylamino)Benzimidazole] |  | 4570 | 851 | 0.70 | 83.2 |  |  |  |  |  |  |  |
|  | FC(F)(F)c1nc2ccc(NC3=NCCN3)c(Br)c2[nH]1 [Example 46, 2-Trifluoromethyl-4-bromo-5-(2-imidazolin-2-ylamino)Benzimidazole] |  | 7080 | 589 | 0.80 | 105 |  |  |  |  |  |  |  |
| 1230 | Brc1c(NC2=NCCN2)ccc2nc(C(c3ccccc3)c3ccccc3)[nH]c12 [Example 48, 2-Diphenylmethyl-4-bromo-5-(2-imidazolin-2-ylamino)Benzimidazole] | 245 |  |  |  |  | 0.80 | 200 | 661 |  |  |  |  |
|  | Brc1cc2nc[nH]c2c(Br)c1NC1=NCCN1 [Example 50, 4,6-Dibromo-5-(2-imidazolin-2-ylamino)Benzimidazole] | 24.5 | 35.5 | 20.9 | 0.90 | 2.34 |  |  |  |  |  |  |  |
|  | Clc1cc(NC2=NCCN2)cc2[nH]cnc12 [Example 53, 7-Chloro-5-(2-imidazolin-2-ylamino)Benzimidazole] | 89.1 | 309 | 18.2 | 1.00 | 18.2 |  |  |  |  |  |  |  |
|  | CCCCc1cc(NC2=NCCN2)cc2[nH]cnc12 [Example 56, 7-Butyl-5-(2-imidazolin-2-ylamino)Benzimidazole] |  | 1260 |  |  |  | 0.30 | 219 | 182 |  |  |  |  |
|  | Clc1cc(NC2=NCCN2)c(Br)c2[nH]cnc12 [Example 60, 4-Bromo-7-chloro-5-(2-imidazolin-2-ylamino)Benzimidazole] | 16.2 | 224 | 17.8 | 0.9 | 0.468 |  |  |  |  |  |  |  |
